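Compound exposure: 48 hours, 5 concentrations, 96-well plates. The concentration for 50% growth inhibition is given as GI50.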 Activity calls are given as the source filed them. Cut-off read from the data, not from the text of the source: active = GI50 up to about 1.1 µM and inactive = higher.
Tests used:
Assay in all cases: growth of human tumour cells (NCI), 48 h
Hs-578T = tested on: Hs-578T
NCI/ADR-RES = tested on: NCI/ADR-RES
A549 = tested on: A549
SK-MEL-28 = tested on: SK-MEL-28
A498 = tested on: A498
SK-MEL-5 = tested on: SK-MEL-5
SW-620 = tested on: SW-620
Malme-3M = tested on: Malme-3M
UO-31 = tested on: UO-31
786-0 = tested on: 786-0
SK-OV-3 = tested on: SK-OV-3
TK-10 = tested on: TK-10
MDA-MB-435 = tested on: MDA-MB-435
HT-29 = tested on: HT-29
MDA-N = tested on: MDA-N
COLO 205 = tested on: COLO 205
SF-539 = tested on: SF-539
DU-145 = tested on: DU-145
NCI-H522 = tested on: NCI-H522
HOP-92 = tested on: HOP-92

Measured: GI50

COC(=O)/C=c1/c2ccccc2n2c1c1ccccc1[n+]2C
inactive: Hs-578T 2.64 µM | NCI/ADR-RES 31.3 µM | A549 3.82 µM | SK-MEL-28 5.82 µM | A498 4.18 µM | SK-MEL-5 2.81 µM | SW-620 2.76 µM | Malme-3M 2.98 µM | UO-31 7.13 µM | 786-0 2.99 µM | SK-OV-3 2.67 µM | TK-10 2.67 µM | MDA-MB-435 4.2 µM | HT-29 3.79 µM | MDA-N 3.54 µM | COLO 205 1.26 µM | SF-539 3.82 µM | DU-145 6.41 µM

COc1c(C)c(C/C=C(\C)CCCCO)c(OC)c2ccccc12
inactive: Hs-578T 30.2 µM | NCI/ADR-RES 42.6 µM | A549 36.1 µM | SK-MEL-5 16.9 µM | SW-620 57.3 µM | UO-31 30.1 µM | 786-0 38 µM | SK-OV-3 > 100 µM | TK-10 63.8 µM | MDA-MB-435 32.6 µM | NCI-H522 19.1 µM | HT-29 20.4 µM | MDA-N 42.2 µM | COLO 205 38.2 µM | HOP-92 21.4 µM | SF-539 52.8 µM | DU-145 45.3 µM

CCOC(=O)Cc1ccc(Nc2nc3cc(F)c(F)cc3nc2C(=O)OCC)cc1
inactive: Hs-578T 64.7 µM | NCI/ADR-RES 43.9 µM | A549 74 µM | SK-MEL-28 64 µM | SK-MEL-5 34.5 µM | SW-620 43.7 µM | Malme-3M > 100 µM | UO-31 1.52 µM | 786-0 > 100 µM | SK-OV-3 > 100 µM | TK-10 > 100 µM | MDA-MB-435 65.6 µM | NCI-H522 9.18 µM | HT-29 53.7 µM | MDA-N 45 µM | COLO 205 37.2 µM | HOP-92 13.4 µM | SF-539 > 100 µM | DU-145 25.9 µM

COC(=O)/C(=N\N)C(C(=O)C(=O)Nc1cccc([N+](=O)[O-])c1)c1nc2ccc(C(=O)c3ccccc3)cc2nc1O (centres undefined)
inactive: Hs-578T > 100 µM | NCI/ADR-RES > 100 µM | A549 61.4 µM | SK-MEL-28 > 100 µM | SK-MEL-5 71 µM | SW-620 > 100 µM | UO-31 37.5 µM | 786-0 > 100 µM | SK-OV-3 93.8 µM | TK-10 39.9 µM | MDA-MB-435 > 100 µM | NCI-H522 72.1 µM | HT-29 > 100 µM | MDA-N > 100 µM | COLO 205 > 100 µM | HOP-92 35.7 µM | SF-539 > 100 µM | DU-145 > 100 µM

O/N=C1\CCc2nonc2\C1=N/Nc1ccccc1
inactive: Hs-578T > 100 µM | NCI/ADR-RES > 100 µM | A549 > 100 µM | SK-MEL-28 > 100 µM | SK-MEL-5 > 100 µM | SW-620 > 100 µM | Malme-3M > 100 µM | UO-31 30.5 µM | 786-0 > 100 µM | SK-OV-3 > 100 µM | TK-10 > 100 µM | MDA-MB-435 > 100 µM | HT-29 > 100 µM | MDA-N > 100 µM | COLO 205 > 100 µM | HOP-92 > 100 µM | SF-539 > 100 µM | DU-145 > 100 µM

COCOc1c(C(OCOC)c2cnc(Sc3ccccc3)n2C)ccc(OC)c1OC (centres undefined)
inactive: Hs-578T 94.4 µM | NCI/ADR-RES 94.4 µM | A549 > 100 µM | SK-MEL-28 > 100 µM | SK-MEL-5 63.8 µM | SW-620 > 100 µM | Malme-3M > 100 µM | UO-31 73.6 µM | 786-0 > 100 µM | SK-OV-3 > 100 µM | TK-10 > 100 µM | MDA-MB-435 > 100 µM | NCI-H522 90.8 µM | HT-29 > 100 µM | MDA-N > 100 µM | HOP-92 > 100 µM | SF-539 > 100 µM | DU-145 > 100 µM

COc1ccc2cc(NC(=O)N/N=C\c3ccc(Cl)cc3)ccc2c1
inactive: Hs-578T 24 µM | NCI/ADR-RES 86.3 µM | A549 > 100 µM | SK-MEL-28 > 100 µM | SW-620 > 100 µM | Malme-3M 34 µM | UO-31 > 100 µM | 786-0 40 µM | SK-OV-3 > 100 µM | TK-10 > 100 µM | MDA-MB-435 69.8 µM | NCI-H522 > 100 µM | HT-29 > 100 µM | MDA-N > 100 µM | COLO 205 > 100 µM | HOP-92 > 100 µM | SF-539 43.1 µM | DU-145 > 100 µM

Cc1nc2sc3ccccc3n2c(=O)c1/N=N/c1ccc(Cl)cc1
inactive: Hs-578T > 100 µM | NCI/ADR-RES > 100 µM | A549 > 100 µM | SK-MEL-28 > 100 µM | SK-MEL-5 > 100 µM | SW-620 > 100 µM | Malme-3M > 100 µM | 786-0 > 100 µM | SK-OV-3 > 100 µM | TK-10 > 100 µM | MDA-MB-435 > 100 µM | NCI-H522 > 100 µM | HT-29 > 100 µM | MDA-N > 100 µM | COLO 205 > 100 µM | HOP-92 > 100 µM | SF-539 > 100 µM | DU-145 > 100 µM
